These are literature values, as cited in patent publication US20180055969A1, “BIPHASIC CERAMIC BONE SUBSTITUTE” (BONE SUPPORT AB, priority 2015, published 2018).

In the data set the test system is bone resorption. As to conditions: for potency compared with etidronate: times as potent as etidronate; for potency relative to etidronate: value in parenthesis, etidronate as reference.

As to `O=P(O)(O)C(Cl)(Cl)P(=O)(O)O` [Clodronate, clodronate], the “potency compared with etidronate” value is given as 10 times.
Consider `NCCC(O)(P(=O)(O)O)P(=O)(O)O` [pamidronate], for which the “potency relative to etidronate” value is 100.
On to `CCCCCN(C)CCC(O)(P(=O)(O)O)P(=O)(O)O` [ibandronate], for which the “potency relative to etidronate” value was 1000.
As for `NCCCCCC(O)(P(=O)(O)O)P(=O)(O)O` [neridronate], the “potency relative to etidronate” value is recorded as 100.
For `O=P(O)(O)C(O)(Cc1cccnc1)P(=O)(O)O` [risedronate], the “potency relative to etidronate” value was 2000.
Take `CN(C)CCC(O)(P(=O)(O)O)P(=O)(O)O` [olpadronate]: the “potency relative to etidronate” value is listed as 500.
In the case of `O=P(O)(O)C(Sc1ccc(Cl)cc1)P(=O)(O)O` [tiludronate], the “potency compared with etidronate” value is 10 times.
Take `NCCCC(O)(P(=O)(O)O)P(=O)(O)O` [alendronate]: the “potency compared with etidronate” value is 10-100 times and the “potency relative to etidronate” value was 500.
For `O=P(O)(O)C(O)(Cn1ccnc1)P(=O)(O)O` [zoledronate], the “potency compared with etidronate” value is “up to 10.000 times” and the “potency relative to etidronate” value is given as 10000.
